# Data reported in paper PMC3707518 (Journal of nuclear medicine : official publication, Society …, 2010).
# “And” between values parts separate entries of the source, which are not always exact repeats. Identical values can stand only once.
# Columns and labels:
# β2*-nAChRs [1] = molecular target: T1, β2*-nAChRs (Homo sapiens, UniProt P17787); experiment: ^123I-5-IA SPECT regional uptake; type: in vivo
# β2*-nAChRs [2] = details: nonhuman primates, cited from earlier work
# [3] = cited from earlier work
# β2*-nAChR = details: cited from earlier work
# β2*-nAChRs [4] = molecular target: T1, β2*-nAChRs; details: 3 h after smoking challenge; representative subject, Fig. 4
# β2*-nAChRs [5] = molecular target: T1, β2*-nAChRs; details: 3.1 h; cited from earlier work
# [6] = dependent smokers; cited from earlier work
# [7] = Plasma nicotine and cotinine levels, smoking challenge and abstinence check
# T1 sequence (P17787 26-502): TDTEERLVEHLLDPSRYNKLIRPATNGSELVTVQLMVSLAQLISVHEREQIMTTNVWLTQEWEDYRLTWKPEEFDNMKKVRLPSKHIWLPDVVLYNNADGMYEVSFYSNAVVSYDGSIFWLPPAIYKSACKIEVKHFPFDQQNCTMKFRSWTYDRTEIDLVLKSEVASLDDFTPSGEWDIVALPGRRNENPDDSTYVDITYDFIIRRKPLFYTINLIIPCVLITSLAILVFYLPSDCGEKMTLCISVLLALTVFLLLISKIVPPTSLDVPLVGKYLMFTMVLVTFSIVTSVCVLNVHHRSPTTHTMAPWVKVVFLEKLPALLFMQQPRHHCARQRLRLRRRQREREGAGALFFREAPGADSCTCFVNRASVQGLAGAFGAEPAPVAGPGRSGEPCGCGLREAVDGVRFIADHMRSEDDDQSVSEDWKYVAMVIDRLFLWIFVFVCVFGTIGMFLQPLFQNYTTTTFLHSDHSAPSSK
smiles,measurement,setting,value
"[123I]c1cncc(OC[C@@H]2CCN2)c1 [^123I-5-IA, 5-^123I-iodo-85380]",Nondisplaceable uptake VND/fp,"β2*-nAChRs [1]; average and range across subjects, brain, after smoking to satiety",19.4 ± 5.8 mL·cm^−3 and 15–28 mL·cm^−3
same,Average VND without correcting for fp,β2*-nAChRs [1]; not corrected for plasma free fraction,7.03 ± 1.92 kBq/cm^3
same,Nondisplaceable binding in the thalamus,β2*-nAChRs [2]; inferred from specific binding,about 30%
same,Specific binding in the thalamus,β2*-nAChRs [2],about 70%
same,Safety,[3],safe and nontoxic
"c1cncc(OC[C@@H]2CCN2)c1 [A-85380, 3-[2(S)-2-azetidinylmethoxy]pyridine]",Affinity,β2*-nAChR,high affinity
same,Selectivity for the β2*-nAChR,β2*-nAChR,high selectivity
CN1CCC[C@H]1c1cccnc1 [nicotine],Maximal occupancy,β2*-nAChRs [4],69.1%
same,Nicotine in blood at the time of greatest occupancy,β2*-nAChRs [5],less than 4 ng/mL
same,Time for nicotine from tobacco smoke to reach the brain after inhalation,[6],≤ 30 s
same,Time of highest nicotine concentration,"[7]; after initiation of tobacco smoking, representative subject, Fig. 2B",20 min
same,Blood nicotine area under curve (60 min),"[7]; after smoking to satiety, individual subjects 1-10 and mean ± SD","4,864.0 and 3,764.0 and 8,273.0 and 8,124.0 and 8,544.3 ± 7,068.8 and 3,470.0 and 7,153.0 and 7,840.0 and 27,700.0 and 4,488.0 and 9,767.0"
